In patent publication US20260151467A1, “METHOD FOR TREATING CANCER” (THE CHILDREN'S MEDICAL CENTER CORPORATION, priority 2018, published 2026):

Experiments:
CCRF-CEM cells [1] = assay: Viable cell counts (trypan blue) of CCRF-CEM cells treated with asparaginase and other agents; format: cell-based, human
Method: Cells (25,000 per well) were seeded in 100 μl of complete growth medium in 96-well plates and incubated with chemotherapeutic agents or vehicle. T-ALL cells were split every 48 hours in a 1:5 ratio. Briefly, 20 μl of cells were mixed with 80 μl fresh culture medium, supplemented with vehicle or chemotherapeutic drugs at the indicated doses. AML cells were split every 72 hours as described above. Cell viability was assessed by counting viable cells based on trypan blue vital dye staining (Invitrogen), according to the manufacturer's instructions. Chemotherapeutic drugs included: PEG-asparaginase (“oncaspar”, Shire, Lexington, MA), dexamethasone (Sigma-Aldrich), vincristine (Selleckchem, Houston, TX), doxorubicin (Sigma-Aldrich), 6-mercaptopurine (Abcam, Cambridge, UK), CHIR99021 (Selleckchem), bortezomib (Selleckchem), rapamycin (Selleckchem), RAD001 (Selleckchem), AZD2014 (Selleckchem), and Wnt3A (R&D systems, Minneapolis, MN). BRD0705 and […] were synthesized as described^15. Caspase 3/7 activity was assessed using the Caspase Glo 3/7 Assay (Promega, Madison, WI) according to the manufacturer's instructions.

CCRF-CEM cells [2] = assay: Assessment of cell size by flow cytometry (FSC-H), CCRF-CEM; format: cell-based, human; details: asparaginase 10 U/L, 48 hours
Method: Assessment of cell size. Cells (400,000 per well) were plated in 1 ml of complete growth medium, containing a final concentration of 10 U/L asparaginase in a 24-well format. After 48 hours of treatment, forward scattering (FSC-H) was assessed by flow cytometry.

[3] = system: asparaginase-resistant T-ALL patient-derived xenograft; assay: T-ALL patient-derived xenograft in NRG mice, survival; format: in vivo, mouse
Method: Mice were exposed to a sub-lethal dose of radiation (4.5 Gy) and subsequently injected with human leukemia cells. All injections were performed by tail vein injection. Blood collections were performed to monitor leukemia onset in mice injected with leukemic cells, which was assessed by staining for human CD45 expression using anti-human CD45-PE-Cy7 (1:400, BD #560915) antibody staining. As soon as leukemia engraftment was confirmed based on ≥5% human leukemia cells in the peripheral blood, treatment of mice was begun. Asparaginase (1,000 U/kg) or PBS were injected by tail vein injection as a single dose on day 1 of drug treatment, and BRD0705 (15 mg/kg) or vehicle were given every 12 hours for 12 days by oral gavage. Vehicle was formulated as previously described.^15 Mice were anesthetized with isoflurane (Patterson Veterinary, Greeley, CO) prior to gavage. After start of treatment, body weight was monitored every third day. To assess bilirubin levels, mandibular blood vein collection was performed, and bilirubin levels were measured in the Boston Children's Hospital clinical laboratory. The primary endpoint of this experiment was survival. Mice were euthanized as soon as they developed weight loss greater than 15% or signs/symptoms of progressing disease. Post-mortem analysis of leukemic burden was performed by extracting bone marrow cells, which were filtered through a […] mesh filter and red blood cells were lysed using the BD Biosciences Red Blood Cell Lysis reagent (BD #555899). Isolated bone marrow cells were stained for assessment of leukemic burden using following antibodies from BD Biosciences: Anti-human CD4-APC-Cy7 (1:100, BD #561839) and anti-human CD8-PerCP-Cy5.5 (1:100, BD #560662).

HCT-15 cells [4] = assay: Chemotherapy response of colon cancer cell lines (trypan blue counts), HCT-15; format: cell-based, human; details: 10 days
Method: (§1) Cells (100,000 per well) were seeded in […] of complete growth medium in 12-well plates and incubated with chemotherapeutic agents or vehicle. Cells were split every 48 hours and cell viability was assessed by counting viable cells based on trypan blue vital dye staining (Invitrogen), according to the manufacturer's instructions. Chemotherapeutic drugs included: asparaginase (pegaspargase, Shire, Lexington, MA), CHIR99021 (Selleckchem), recombinant human Wnt3A protein (R&D systems, Minneapolis, MN) and recombinant human R-Spondin 3 protein (R&D systems, Minneapolis, MN). BRD0705 and BRD3731 were synthesized as described (Wagner et al., 2018). Caspase 3/7 activity was assessed using the Caspase Glo 3/7 Assay (Promega, Madison, WI) according to the manufacturer's instructions.

SW-480 cells = assay: Chemotherapy response of colon cancer cell lines (trypan blue counts), SW-480; format: cell-based, human; details: 10 days
Method: as §1

Rspo3 fusion organoids = assay: Chemotherapy response in mouse intestinal organoids, Rspo3 fusion; format: cell-based; details: asparaginase 100 U/L, 10 days
Method: (§2) For assessment of chemotherapy response in mouse intestinal organoids, Apc-deficient and Rspo3 fusion organoids were cultured in basal organoid medium (medium not containing murine Wnt3A, murine Noggin and human R-spondin1 protein). A full 0.95 cm2 well of organoids was split into new wells, aiming to obtain approximately 25 organoids per well. Organoids were split according to previously published protocols (O'Rourke et al., 2016). Matrigel and basal organoid culture medium were supplemented with vehicle or chemotherapeutic agents, and split every 48 hours. After 10 days in culture, total organoid numbers per wells were counted by light microscopy. Microscopy was performed using an 100× objective on an Axio Imager A1 microscope (Zeiss, Oberkochen, Germany), with images captured using a CV-A10 digital camera (Jai, Yokohama, Japan) and Cytovision software (Leica Biosystems, Wetzlar, Germany).
(§3) Organoids touching the edge of a well were excluded from counting. Images were taken from a representative of three independent experiments and analyzed with ImageJ Software (Schneider et al., 2012).

Apc-deficient organoids = assay: Chemotherapy response in mouse intestinal organoids, Apc-deficient; format: cell-based; details: asparaginase 100 U/L, BRD0705 1 μM or both, 10 days
Method: as §2, §3

HCT-15 cells [5] = assay: Assessment of cell size by flow cytometry (FSC-H), HCT-15; format: cell-based, human; details: asparaginase 100 U/L (FIG. 18A)
Method: […] After 48 hours of treatment, forward scatter height (FSC-H) was assessed by flow cytometry on a Beckton-Dickinson LSR-II instrument.

Rspo3 fusion tumors = assay: Subcutaneous Rspo3 fusion organoid tumors in nude mice; format: in vivo, mouse; details: single dose of asparaginase
Method: (§4) For implantation of APC mutant human CRC PDX, patient tumor material was collected in PBS and kept on wet ice for engraftment within 24 h after resection. Upon arrival, necrotic and supporting tissues were carefully removed using a surgical blade. Approximately 1 mm×1 mm tissue fragments were implanted subcutaneously into the flank region of male nude mice, as described (Bullman et al., 2017). For injection of intestinal organoids (Rspo3; p53; Kras, or Apc; p53; Kras), per mouse one full […] well of organoids was injected subcutaneously.
(§5) As soon as tumors reached a volume of approximately 150 mm3, treatment of mice was begun. For the APC mutant human CRC PDX, a single dose of asparaginase (1,000 U/kg) or PBS was injected by tail vein injection on day 1 of treatment, and BRD0705 (15 mg/kg) or vehicle was given every 12 hours for 21 days by oral gavage. Vehicle was formulated as previously described (Wagner et al., 2018).
(§6) After start of treatment, body weight and tumor size were evaluated every other day. Tumor size was assessed by caliper measurements and the approximate volume of the mass was calculated using the formula (l×w×w)×(π/6), where 1 is the major tumor axis and w is the minor tumor axis.

Apc-deficient tumors = assay: Subcutaneous Apc-deficient organoid tumors in nude mice; format: in vivo, mouse; details: single dose of asparaginase
Method: as §4, §5, §6

[6] = Body weight of nude mice injected with organoids; format: in vivo; details: single dose of asparaginase, FIG. 19A
Method: as §6

[7] = system: APC-mutant CRC patient-derived xenograft; assay: APC-mutant human CRC patient-derived xenograft in nude mice; format: in vivo, mouse; details: asparaginase 1000 U/kg×1 dose; BRD0705 every 12 hours×21 days
Method: as §4
As soon as tumors reached a volume of approximately 150 mm3, treatment of mice was begun. […] Vehicle was formulated as previously described (Wagner et al., 2018).
as §6

CRC = details: Clarkson 1970; Ohnuma 1970; Wilson 1975; cited from earlier work

asparaginase
toxicity of asparaginase (CCRF-CEM cells [1]; 10 U/L dose): lacked detectable toxicity
asparaginase sensitivity of the cell line (viability) (CCRF-CEM cells [1]; FIG. 5: 100 U/L asparaginase, 48 hours): asparaginase-resistant
cell size (FSC-H) (CCRF-CEM cells [2]): measurable decrease in cell size
difference in survival between vehicle and monotherapy groups (log-rank) ([3]; FIG. 4D, Kaplan-Meier): not significant
efficacy against xenograft (survival) ([3]; asparaginase 1,000 U/kg i.v. single dose, BRD0705 15 mg/kg oral gavage every 12 hours for 12 days): highly resistant
response to asparaginase monotherapy (HCT-15 cells [4]): refractory
response to asparaginase monotherapy (SW-480 cells): refractory
toxicity to organoids (viable organoid count) (Rspo3 fusion organoids): highly toxic
toxicity to organoids (viable organoid count) (Apc-deficient organoids): little activity
cell size (FSC-H) (HCT-15 cells [5]): significantly decreased cell size
therapeutic activity (Rspo3 fusion tumors): significant therapeutic activity
disease progression (tumor volume) (Rspo3 fusion tumors; FIG. 16B): markedly delayed disease progression
tumor regression (Rspo3 fusion tumors; FIG. 16C): induced tumor regression in most treated mice
progression-free survival (Rspo3 fusion tumors; FIG. 16D): prolonged progression-free survival
effect on tumors (Apc-deficient tumors): little effect
weight loss [6]: without inducing appreciable weight loss
activity on tumor growth [7]: no activity
activity in unselected patients with CRC (CRC): little activity
